Patent publication US9328099B2, “Cyanomethylpyrazole carboxamides as janus kinase inhibitors” (Merck Sharp & Dohme Corp., priority 2011, dated 2016)
Like-named read-outs stand apart in the source and are kept apart here.

Columns and labels:
JAK1 = JAK1 (Homo sapiens (Human), UniProt P23458); assay: Jak Biochemical HTRF Assay, JAK1; conditions: read-out: JAK1 IC50
From the text: (§1) Jak Biochemical HTRF Assay Protocol
(§2) Subsequent reagent additions employed an Agilent Bravo.

JAK2 = JAK2 (Homo sapiens (Human), UniProt O60674); assay: Jak Biochemical HTRF Assay, JAK2
JAK2, sequence (O60674 849-1124): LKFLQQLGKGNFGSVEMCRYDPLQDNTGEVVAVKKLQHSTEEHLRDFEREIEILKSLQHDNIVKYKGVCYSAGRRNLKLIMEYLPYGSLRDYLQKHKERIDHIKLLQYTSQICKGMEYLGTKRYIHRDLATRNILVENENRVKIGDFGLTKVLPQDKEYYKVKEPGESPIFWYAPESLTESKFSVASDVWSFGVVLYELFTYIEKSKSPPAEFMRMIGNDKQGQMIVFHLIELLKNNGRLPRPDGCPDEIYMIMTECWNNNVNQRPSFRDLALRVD
From the text: as §1, §2

[1] = HTRF biochemical assay, GST-tagged catalytic domain, top concentration tested […]

JAK1, sequence (P23458 875-1153): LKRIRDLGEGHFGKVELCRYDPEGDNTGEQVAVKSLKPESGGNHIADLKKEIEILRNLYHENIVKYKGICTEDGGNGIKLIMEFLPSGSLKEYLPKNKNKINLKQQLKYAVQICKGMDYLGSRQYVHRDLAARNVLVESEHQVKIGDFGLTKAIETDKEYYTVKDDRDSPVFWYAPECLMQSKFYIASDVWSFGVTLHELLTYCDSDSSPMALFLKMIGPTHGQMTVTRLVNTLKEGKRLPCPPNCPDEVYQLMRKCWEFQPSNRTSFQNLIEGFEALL

SMILES | IC50 (JAK1; [1]) | IC50 (JAK2; [1]) | IC50 (JAK1) | IC50 (JAK2)
CC(OC(=O)N1CCC(CC#N)(n2cc(C(N)=O)c(Nc3ccc(F)cc3)n2)CC1)C(F)(F)F (stereo not shown) [Example 30-3, 1,1,1-trifluoropropan-2-yl 4-(4-carbamoyl-3-(4-fluorophenylamino)-1H-pyrazol-1-yl)-4-(cyanomethyl)piperidine-1-carboxylate] | 0.8 nM | 28 nM | – | –
N#CCC1(n2cc(C(N)=O)c(Nc3ccc(F)cc3)n2)CCN(C(=O)OC2CCC2)CC1 [Example 30-4, cyclobutyl 4-(4-carbamoyl-3-(4-fluorophenylamino)-1H-pyrazol-1-yl)-4-(cyanomethyl)piperidine-1-carboxylate] | 0.9 nM | 33 nM | – | –
N#CCC1(n2cc(C(N)=O)c(Nc3ccc(F)cc3)n2)CCN(C(=O)OCC(F)F)CC1 [Example 30-7, 2,2-difluoroethyl 4-(4-carbamoyl-3-(4-fluorophenylamino)-1H-pyrazol-1-yl)-4-(cyanomethyl)piperidine-1-carboxylate] | 0.5 nM | 9 nM | – | –
CC1(COC(=O)N2CCC(CC#N)(n3cc(C(N)=O)c(Nc4ccc(F)cc4)n3)CC2)CC1 [Example 30-8, (1-methylcyclopropyl)methyl 4-(4-carbamoyl-3-(4-fluorophenylamino)-1H-pyrazol-1-yl)-4-(cyanomethyl)piperidine-1-carboxylate] | 1 nM | 72 nM | – | –
N#CCC1(n2cc(C(N)=O)c(Nc3ccc(F)cc3)n2)CCN(C(=O)OC(CF)CF)CC1 [Example 30-9, 1,3-difluoropropan-2-yl 4-(4-carbamoyl-3-(4-fluorophenylamino)-1H-pyrazol-1-yl)-4-(cyanomethyl)piperidine-1-carboxylate] | 0.3 nM | 5 nM | – | –
C[Si](C)(C)COC(=O)N1CCC(CC#N)(n2cc(C(N)=O)c(Nc3ccc(F)cc3)n2)CC1 [Example 30-10, (trimethylsilyl)methyl 4-(4-carbamoyl-3-(4-fluorophenylamino)-1H-pyrazol-1-yl)-4-(cyanomethyl)piperidine-1-carboxylate] | – | – | 21 nM | 745 nM
N#CCC1(n2cc(C(N)=O)c(Nc3ccc(F)cc3)n2)CCN(C(=O)OCC2(O)CC2)CC1 [Example 30-13, (1-hydroxycyclopropyl)methyl 4-(4-carbamoyl-3-(4-fluorophenylamino)-1H-pyrazol-1-yl)-4-(cyanomethyl)piperidine-1-carboxylate] | 0.9 nM | 20 nM | – | –

Continued by falling IC50 (JAK1; [1]), values first:

IC50 (JAK1; [1]) | IC50 (JAK2; [1]) | SMILES | IC50 (JAK1) | IC50 (JAK2)
4 nM | 120 nM | N#CCC1(n2cc(C(N)=O)c(Nc3ccc(F)cc3)n2)CCN(C(=O)OCC2CCC2)CC1 [Example 30-5, cyclobutylmethyl 4-(4-carbamoyl-3-(4-fluorophenylamino)-1H-pyrazol-1-yl)-4-(cyanomethyl)piperidine-1-carboxylate] | – | –
2 nM | 30 nM | C[C@@H](OC(=O)N1CCC(CC#N)(n2cc(C(N)=O)c(Nc3ccc(F)cc3)n2)CC1)C(F)(F)F [Example 30-14, (R)-1,1,1-trifluoropropan-2-yl 4-(4-carbamoyl-3-(4-fluorophenylamino)-1H-pyrazol-1-yl)-4-(cyanomethyl)piperidine-1-carboxylate] | – | –
0.9 nM | 38 nM | N#CCC1(n2cc(C(N)=O)c(Nc3ccc(F)cc3)n2)CCN(C(=O)OCC2CC2(F)F)CC1 (stereo not shown) [Example 30-6, (2,2-difluorocyclopropyl)methyl 4-(4-carbamoyl-3-(4-fluorophenylamino)-1H-pyrazol-1-yl)-4-(cyanomethyl)piperidine-1-carboxylate] | – | –
0.2 nM | 11 nM | N#CCC1(n2cc(C(N)=O)c(Nc3ccc(F)cc3)n2)CCN(C(=O)OCC(F)(F)CO)CC1 [Example 30-11, 2,2-difluoro-3-hydroxypropyl 4-(4-carbamoyl-3-(4-fluorophenylamino)-1H-pyrazol-1-yl)-4-(cyanomethyl)piperidine-1-carboxylate] | – | –
